Results published in EP0437336B1, “Biophosphoryl hydrazines and their use as pesticides” (priority 1990, dated 1991).
≈ marks a conversion by molar mass, not a printed value. Read-outs that look alike come from different tables or passages of the source.

Key:
[1] = system: Southern Armyworm; assay: Biological Method D: Foliar Insecticidal Activity Test, Southern Armyworm test; format: in vivo, Spodoptera eridania; details: Spodoptera eridania, Method D foliar test, Southern Armyworm
Method: (§1) Biological Method D: Foliar Insecticidal Activity Test
(§2) In evaluating the foliar insecticidal activity of the compounds of this invention against insects and mites, the following test procedures were employed.
(§3) Not all compounds were tested at each of the several concentrations stated above. Test concentrations of a compound were selected as those most likely to differentiate dose response of a particular compound toward a particular test insect.
(§4) Initial evaluations were made on one or more of the following pests:
(§5) For the Mexican Bean Beetle and Southern armyworm tests, individual lima bean (Phaseolus limeniss var. Woods' Prolific) leaves were placed on moistened pieces of filter paper in Petri dishes. The leaves were then sprayed with the test solution using a rotating turntable and allowed to dry. The dishes were then infested with 10 third instar larvae of either the Mexican Been Beetle or the Southern Armyworm. The dishes were then covered. Percent mortality was determined for each species and spray concentration at 48 and 96 hours after treatment.
(§6) The mortalities obtained in this manner were plotted on logarithmic probability paper.
(§7) The rotating turntable consists of a fixed, continuously operating spray nozzle under which targets are rotated at a fixed speed and distance. If the target is a Petri dish (such as for the bean beetle, armyworm, mite, or aphid tests), the distance from the nozzle is 38.1 cm (15 inches). If the target is a Mason jar (such as for the boll weevil test), the distance from the nozzle is 17.8 cm (7 inches). The nozzle is located 8 inches from the rotating shaft. The targets on individual platforms revolve around the shaft at 1 revolution per 20 seconds but only a brief portion of this time occurs in the spray path. Targets pass only once under the nozzle and then are removed to drying hoods.
(§8) The nozzle used is a 1/4 JCO Spraying Systems (Wheaton, Illinois) air atomizing nozzle equipped with a No. 2850 fluid cap and a No. 70 air cap. At the 68.95 x 10³ Pa gauge (10 psig) air pressure used and with liquid siphon feed, 1.89 ℓ/hr [0.5 GPH (gallons per hour)] are delivered in a round spray pattern with a 21 degree spray angle. Targets are misted with spray droplets to the point that the droplets coalesce to form a uniform thin film insufficient to drown test organisms.

[2] = system: Mexican Bean Beetle; assay: Biological Method D: Foliar Insecticidal Activity Test, Mexican Bean Beetle test; format: in vivo, Epilachna varivestis; details: Epilachna varivestis, Mexican Bean Beetle
[3] = system: Green Peach Aphid; assay: Biological Method D: Foliar Insecticidal Activity Test, aphid test; format: in vivo, Myzus persicae; design: key: I = inactive at concentration listed
[4] = system: southern corn rootworm, Diabrotica undecimpunctata howardi; assay: Biological Method A: Corn Rootworm Screening Test (treated non-aggressive soil); details: soil concentration giving 90% mortality, 10 days at 27°C
[5] = system: southern corn rootworm, Diabrotica undecimpunctata howardi; details: at-planting soil application
[6] = system: southern corn rootworm, Diabrotica undecimpunctata howardi; details: for foliar systemic nonagressive Method B crw % control at 0.56 kg/ha (0.5 lb/acre): percent control relative to infested check, from root damage ratings, 14 days post-spraying
[7] = system: Boll Weevil; assay: Biological Method D: Foliar Insecticidal Activity Test, boll weevil test; format: in vivo, Anthonomous grandis; design: key: I = inactive at concentration listed
[8] = system: Two-Spotted Spider Mite; assay: Biological Method D: Foliar Insecticidal Activity Test, mite test; format: in vivo, Tetranychus urticae; design: key to LC50 TSM: I = inactive at concentration listed; details: Two-Spotted Spider Mite; for LC50: Tetranychus urticae
[9] = system: Green Peach Aphid; assay: Biological Method D: Foliar Insecticidal Activity Test, aphid test; format: in vivo, Myzus persicae; details: Myzus persicae; Method D foliar test; Green Peach Aphid
Method: as §1, §2, §3, §4
(§9) For the aphid test, infested broccoli (Brassica oleracea italica var. DiCicco) leaves containing about 50 aphids were placed in a Petri dish lid on a moistened piece of cotton. The leaves were then sprayed to thorough wetness with the test solution using a rotating turntable, held for twenty-four hours and then the percentage killed was determined.
as §6, §7, §8

[10] = system: Southern Armyworm; assay: Biological Method D: Foliar Insecticidal Activity Test, Southern Armyworm test; format: in vivo, Spodoptera eridania; design: key: I = inactive at concentration listed
[11] = system: Southern Armyworm; assay: as above; format: in vivo, Spodoptera eridania; design: key: I = inactive at concentration tested; details: compounds a-r
Method: as §1, §2, §3, §4, §5, §6, §7, §8

[12] = system: Boll Weevil; assay: Biological Method D: Foliar Insecticidal Activity Test, boll weevil test; format: in vivo, Anthonomous grandis; design: key: I = inactive at concentration tested; details: compounds a-r
Method: as §1, §2, §3, §4
For the boll weevil test, 10 adult weevils were placed in a 0.24 ℓ (0.5 pint) glass Mason jar containing a small cube of apple. The weevils were confined to the jar by fiberglass screen mesh secured by a screw-type rim cap. The jars were then sprayed with the test solution using a rotating turntable; directing the spray through the mesh into the jar. The percentage killed was determined after forty-eight and ninety six hours.
as §6, §7, §8

[13] = system: Green Peach Aphid; assay: Biological Method D: Foliar Insecticidal Activity Test, aphid test; format: in vivo, Myzus persicae; design: key: I = inactive at concentration tested; details: compounds a-r
Method: as §1, §2, §3, §4, §9, §6, §7, §8

[14] = system: Boll Weevil; assay: Biological Method D: Foliar Insecticidal Activity Test, boll weevil test; format: in vivo, Anthonomous grandis; details: Boll Weevil; 96 hrs; compounds a-r
[15] = 96 hrs, read-out: LC50 AW 96 hrs
[16] = Method D foliar test, 48 hrs, read-out: LC50 BB 48 hrs.
[17] = Method D foliar test, 96 hrs, read-out: LC50 BB 96 hrs
[18] = Method D foliar test, read-out: LC50 TSM
[19] = foliar, 48 hrs, compounds a-r, read-out: LC 50 BB 48 hrs.
[20] = foliar, 96 hrs, compounds a-r, read-out: LC 50 BB 96 hrs.
[21] = foliar, compounds a-r, read-out: LC 50 TSM

Row | Structure (SMILES) | primary nonagressive Method A crw LC90 [4] [ppm] | foliar systemic nonagressive Method B crw % control at 0.56 kg/ha (0.5 lb/acre) [6] [%] | LC50 BW 48 hrs [7] | LC50 BW 96 hrs [7] | LC50 [8, 18] [µg/mL] | LC50 [9] [µg/mL] | LC50 AW 48 hrs [10] | LC50 AW 48 hrs [11] | LC50 AW 96 hrs [11] | LC50 BW 48 hrs [12] | LC50 BW 96 hrs [12] | LC50 GPA [13] | further results
1 | CCCOP(=S)(NNP(=S)(OCC)OCCC)OCC (centres unmarked) [Compound 29, reference compound] | 0.09 | 38 | I | I | 150 (≈ 412 µM) |  |  |  |  |  |  |  | LC50 ([1]; 48 hrs, read-out: LC50 AW 48 hrs): 420 µg/mL (≈ 1150 µM); LC50 [1, 15]: 180 µg/mL (≈ 494 µM); LC50 [2, 16]: 150 µg/mL (≈ 412 µM); LC50 [2, 17]: 150 µg/mL (≈ 412 µM); LC50 GPA [3]: I; secondary aggressive Method C crw LC50 ([5]; rated 17 days post-infestation): ~3.03 kg/ha; secondary aggressive Method C crw LC50 ([5]; value in brackets): ~2.7 lb/acre
2 | CCOP(=O)(NNP(=S)(OCC)OCC)OCC [Compound 2, reference compound] | 0.87 | 0 | I | I | 540 (≈ 1690 µM) | 150 (≈ 468 µM) | I |  |  |  |  |  | LC50 AW 96 hrs [10]: I
3 | COP(=S)(NN(C)P(=S)(OC)OC)OC [h] |  |  |  |  |  |  |  | I | I | I | I | I | 
4 | CCCOP(=S)(NNP(=S)(OCC)SC(C)C)OCCC (centres unmarked) [Compound 23] | 0.55 |  | I | I | 150 (≈ 380 µM) | 150 (≈ 380 µM) | I |  |  |  |  |  | LC50 [2, 16]: 62 µg/mL (≈ 157 µM); LC50 [2, 17]: 78 µg/mL (≈ 198 µM); pest or weed control at 560 g/ha ([6]; Diabrotica undecimpunctata, in Zea mays, foliar, 336 h, read-out: foliar systemic nonagressive Method B crw % control at 0.56 kg/ha (0.5 lb/acre)): 16%; LC50 AW 96 hrs [10]: I
5 | CCOP(=S)(OCC)N(C)NP1(=S)OCC(C)(C)CO1 [n] |  |  |  |  |  |  |  | I | I | I | I | I | LC50 [2, 19]: 150 µg/mL (≈ 414 µM); LC50 [2, 20]: 150 µg/mL (≈ 414 µM)
6 | CCOP(=S)(OCC(C)(C)C)N(C)NP(=S)(OC)OC (centres unmarked) [i, N-(O,O-dimethylthiophosphoryl) N′-(O-ethyl O-neopentylthiophosphoryl) N′-methyl hydrazine] |  |  |  |  |  |  |  | I | I | I | I | I | LC50 [8, 21]: 150 µg/mL (≈ 412 µM)
7 | CCOP(=S)(NNP(=S)(OCC)OCC)OCC [Compound 1, reference compound] | 0.5 | 16 | I | I |  | 500 (≈ 1490 µM) | I |  |  |  |  |  | LC50 [1, 15]: 500 µg/mL (≈ 1490 µM); LC50 TSM ([8]; Method D foliar test): I
8 | CCOP(=O)(NN(C)P(=S)(OC)OC)SC(C)CC (centres unmarked) [l, N-(O,O-dimethylthiophosphoryl) N'-(O-ethyl S-secbutyl chloro phosphoryl) N-methyl hydrazine] |  |  |  |  |  |  |  | I | I | I |  | I | LC50 BW 96 hrs [14]: 740 ppm; LC50 [8, 21]: 660 µg/mL (≈ 1880 µM)
9 | CCOP(=S)(NN(C)P(=S)(OCC)OC(C)C)OCC (centres unmarked) [q] |  |  |  |  |  |  |  | I | I |  | I | I | LC50 [2, 19]: 300 µg/mL (≈ 823 µM); LC50 [2, 20]: 72 µg/mL (≈ 198 µM)
